Two compounds from patent US20250222114A1, “GLYCOCONJUGATED DRUG FOR THE TREATMENT OF HEPATOCELLULAR CARCINOMA” (priority 2021, published 2025) can be followed below.

Some results are limits rather than exact numbers.

Experiment [1] concerns Huh7 (human hepatic cell line). Kind of experiment: Cell viability (CellTiter), Huh7. Format: cell-based. The following applies: for IC50: Huh7 cells. On the procedure:
In order to evaluate the therapeutic efficacy and potential cytotoxicity of the glycoconjugated drug of the invention for the treatment of HCC, cell viability assays were carried out in different cell lines. To this end, an in vitro model was designed. The cells used for in vitro assay were a murine hepatic cell line (Hepa1-6) and a human hepatic cell line (Huh7). Chemiograms were performed using increasing doses of the compound 4-MU as well as the glycosylated compound 4MUR (0-2000 μM). Cell viability was measured by using the CellTiter kit (Promega Corporation). Proliferation was measured through a tritiated thymidine incorporation assay, by incubating the cells for 48 h with either one of the compounds (4MU/4MUR) or culture medium (RPMI) in the presence of 3H-thymidine (Migliore-LaClaustra).

A further experiment relates to Hepa129 cells. Kind of experiment: Proliferation by 3H-thymidine incorporation, Hepa129. It counts as cell-based, murine. The following applies: for dose at which proliferation was significantly decreased: Hepa129, 48 h, 3H-thymidine. On the procedure: Chemiograms were performed using increasing doses of the compound 4-MU as well as the glycosylated compound 4MUR (0-2000 μM). Cell viability was measured by using the CellTiter kit (Promega Corporation). Proliferation was measured through a tritiated thymidine incorporation assay, by incubating the cells for 48 h with either one of the compounds (4MU/4MUR) or culture medium (RPMI) in the presence of 3H-thymidine (Migliore-LaClaustra). After incubation, cells were harvested and centrifuged to remove ^3H-thymidine from the supernatant. The cell pellet was lysed with sterile distilled water (200 μl) and said volume was added to paper filters for retaining cell DNA with incorporated ^3H-thymidine. Each paper filter was impregnated in a tube containing scintillation liquid and each sample was run and read using a liquid scintillator counter (Beckman) detecting […] per minute emitted by tritium (^3H). Results are expressed as counts per minute (cpm) for each sample. Proliferation capacity of murine Hepa129 cells treated with 4MU and 4MUR was evaluated, as measured by ^3H-thymidine incorporation.

The next experiment has as its system HAS2. Kind of experiment: HAS2 mRNA expression (RT-qPCR), Huh7. It counts as cell-based, human. Particulars: Huh7 cells. Here is the method:
Since HAS mRNA levels often correspond to the activity of hyaluronan synthesis, the effect of 4MUR on HAS2 and HAS3 expression was assessed. To this end, cells with a concentration of 100,000 cells/ml were cultured on 6-well plates and treated with 4MUR (500 μM) for 24 h. Total RNA was extracted using the TriReagent (Sigma Aldrich) according to the manufacture's protocol. RNA was quantified at 260 nm in a DU®730 spectrophotometer (Beckman Coulter, Fullerton, CA, USA). The RNA purity was evaluated according to MIQE guidelines by measuring the ratio A260/A280. […] RT-qPCR for HAS2, HAS3 genes was performed using iQ SYBR Green Supermix protocol (Bio-Rad Laboratories, Milan, Italy). Each PCR amplification was carried out following manufactures instructions (iQ SYBR Green Supermix-Bio-Rad) in a Bio-Rad iQ5 real-time PCR detection system (iCycler IQ5 software, version 3.1; Bio-Rad) Expression was normalized to actin with two reference genes.
In general terms: Quantitative PCR measures a nucleic acid by following its amplification.

The next experiment deals with HA in CFSC-2G cells. Nature of the experiment: HA content by flow cytometry, CFSC-2G. It counts as cell-based, rat. Particulars: 0.25-1 mM, 48 h. Here is the method:
The levels of HA were quantified in the activated stellate cells CFSC-2G. For this goal, HA was detected by incubation with HA-fluorescein iso-thiocyanate (FITC) (20 μg/100 μL, Calbiochem SA, Bs. As., Argentina). Cells were treated with 4MU or 4MUR 0.25-1 mM and fixed were analyzed by flow cytometry with a FACS Accuri, BD (Becton Dickinson Immunocytometry Systems), using the BD Accuri 6C™ software.
On the technique in general: In flow cytometry, cells or beads pass a laser one at a time.

Experiment [2] concerns Hepa1-6 (murine hepatic cell line). Nature of the experiment: Cell viability, Hepa1-6. It counts as cell-based. Particulars: Hepa 1.6 cells, compared with 4-MU. On the procedure:
In order to evaluate the therapeutic efficacy and potential cytotoxicity of the glycoconjugated drug of the invention for the treatment of HCC, cell viability assays were carried out in different cell lines.
To this end, an in vitro model was designed. The cells used for in vitro assay were a murine hepatic cell line (Hepa1-6) and a human hepatic cell line (Huh7).
Chemiograms were performed using increasing doses of the compound 4-MU as well as the glycosylated compound 4MUR (0-2000 μM). Cell viability was measured by using the CellTiter kit (Promega Corporation). Proliferation was measured through a tritiated thymidine incorporation assay, by incubating the cells for 48 h with either one of the compounds (4MU/4MUR) or culture medium (RPMI) in the presence of 3H-thymidine (Migliore-LaClaustra).

In experiment [3] the test system is α-SMA, TGF-β, COL1A2, TIMP-1, MMP-9 in CFSC-2G cells. Kind of experiment: Fibrotic-related gene expression by qPCR, CFSC-2G. The following applies: 48 h. It counts as cell-based, rat. On the procedure:
The effect of 4MUR on liver fibrogenesis was assessed by the expression of the fibrotic-related genes including α-SMA, TGF-β, profibrogenic (COL1A2 and TIMP-1), and the antifibrogenic gene matrix metalloproteinase (MMP-9) on CFSC-2G cells by qPCR.

For experiment [4], the system named is orthotopic Hepa129 tumors. Kind of experiment: Orthotopic hepatocellular carcinoma model associated with advanced fibrosis induced by TAA. It counts as in vivo, C3H/He mice. The following applies: oral administration 200 mg/kg/day.

For orientation: IC50 means the concentration that inhibits the measured activity by half. `Cc1cc(=O)oc2cc(O)ccc12` [4MU, 4-Methylumbelliferone, reference compound] registered an IC50 in experiment [1] (Homo sapiens, Huh-7) above 2000 µM. Moreover, the lowered proliferation in the experiment with Hepa129 cells (Hepa129, 1 mM) is given as 50%. Moreover, in the experiment on Hepa129 cells, the “dose at which proliferation was significantly decreased” value was found to be 1 mM. The “expression of HAS2” value with HAS2 is reported as “did not affect”. The HA level result in the experiment on HA in CFSC-2G cells is “significantly decreased”.

Regarding `Cc1cc(=O)oc2cc(O[C@@H]3O[C@H](CO[C@@H]4O[C@@H](C)[C@H](O)[C@@H](O)[C@H]4O)[C@@H](O)[C@H](O)[C@H]3O)ccc12` [4MUR, 4-methylumbelliferyl-rutinoside], in experiment [1] (Huh7, 4MUR compared to 4MU), the “increase of 4MU antitumoral effect by glycosylation” value is 2.2. In experiment [1], this compound registered an IC50 of 488 µM. Moreover, the “in vitro antitumoral effect” value in experiment [2] is on record as “significantly higher than 4-MU”. The “lower dose for significant decrease of proliferation vs 4MU” value in the experiment on Hepa129 cells (Hepa129) is listed as 10 times. Also, in the experiment on Hepa129 cells (Hepa129, 1 mM), the “proliferation” value is “did not proliferate”. Besides, the “dose at which proliferation was significantly decreased” value in the experiment on Hepa129 cells was 0.1 mM. The “expression of HAS2” value in the experiment on HAS2 was “significantly reduced”. For the same compound, in the experiment on HA in CFSC-2G cells, the HA level entry was “significantly decreased”. In addition, in experiment [3], the COL1A2 expression result was “strongly downregulated”, the MMP-9 expression result is given as “not affected”, the TGF-β expression entry is “strongly downregulated” and the TIMP-1 expression entry was “strongly downregulated”. Besides, the α-SMA expression entry in experiment [3] is on record as “strongly downregulated”. The “efficacy against hepatocellular carcinoma” value in experiment [4] was “efficient”.
